In assay [1] the test system is Bacteria. Briefly: Preservation of a cooling lubricant emulsion, repeated weekly contamination with bacteria mixture. The following applies: maximum of 10 weeks; for Number of weeks in which the growth of microorganisms lay beneath the limiting values (bacteria <10^6 CFU/g): 0.05% (=500 ppm) BIT in cooling lubricant emulsion; for Number of weeks in which the growth of microorganisms remained below the limiting values (bacteria <10^6 CFU/g): 0.18% (=1800 ppm) OPP in cooling lubricant emulsion. In kind it is cell-based. How it is done:
(§1) For this purpose, preserved samples of the cooling lubricant emulsion were repeatedly exposed in a weekly cycle to microbiological contamination with the following microorganisms:
(§2) The bacteria mixture was added in each case separately from the yeasts/molds. The maximum experimental time was 10 weeks (=10 contaminations/inoculation cycles), provided that the weekly cell count determination (in each case 7 days after the contamination) was kept within the following limiting values:
(§3) bacteria <10^6 CFU/g yeasts/molds <10^3-4 CFU/g
(§4) The experiment was terminated when said values were exceeded twice in succession.

Assay [2] deals with Molds. Briefly: Preservation of a cooling lubricant emulsion, repeated weekly contamination with molds. The following applies: maximum of 10 weeks; for Number of weeks in which the growth of microorganisms lay beneath the limiting values (molds <10^3-4 CFU/g): 0.05% (=500 ppm) BIT in cooling lubricant emulsion; for Number of weeks in which the growth of microorganisms remained below the limiting values (molds <10^3-4 CFU/g): 0.18% (=1800 ppm) OPP in cooling lubricant emulsion. The format is cell-based, Acremonium strictum, Fusarium solani, Geotrichum candidum. The procedure: as §1, §2, §3, §4

Assay [3] deals with Yeasts. Briefly: Preservation of a cooling lubricant emulsion, repeated weekly contamination with yeasts. The format is cell-based, Rhodotorula rubra. The following applies: maximum of 10 weeks; for Number of weeks in which the growth of microorganisms lay beneath the limiting values (yeasts <10^3-4 CFU/g): 0.05% (=500 ppm) BIT in cooling lubricant emulsion; for Number of weeks in which the growth of microorganisms remained below the limiting values (yeasts <10^3-4 CFU/g): 0.18% (=1800 ppm) OPP in cooling lubricant emulsion. The procedure: as §1, §2, §3, §4

The record followed here is patent US20100264359A1, “BIOCIDAL MIXTURES” (LANXESS DEUTSCHLAND GMBH, priority 2007, published 2010).

In the case of `O=c1[nH]sc2ccccc12` [BIT, benzisothiazolinone], the “Number of weeks in which the growth of microorganisms lay beneath the limiting values (bacteria <10^6 CFU/g)” value is 1 week weeks in assay [1] and 1 week (of a maximum of 10 weeks) in assay [1] (listed as benzisothiazolinone). Also, the entries for the “Number of weeks in which the growth of microorganisms lay beneath the limiting values (molds <10^3-4 CFU/g)” value in assay [2] and in assay [2] (listed as benzisothiazolinone) were 1 week weeks and 1 week (of a maximum of 10 weeks), respectively. Also, the “Number of weeks in which the growth of microorganisms lay beneath the limiting values (yeasts <10^3-4 CFU/g)” value is reported as 7 weeks in assay [3] and 7 weeks (of a maximum of 10 weeks) in assay [3] (listed as benzisothiazolinone).

With `Oc1ccccc1-c1ccccc1` [OPP, o-phenylphenol], the “Number of weeks in which the growth of microorganisms remained below the limiting values (bacteria <10^6 CFU/g)” value was 2 weeks in assay [1] and 2 weeks (of a maximum of 10 weeks) in assay [1] (listed as o-phenylphenol). Besides, the “Number of weeks in which the growth of microorganisms remained below the limiting values (molds <10^3-4 CFU/g)” value in assay [2] was 10 weeks; in assay [2] (listed as o-phenylphenol), 10 weeks (of a maximum of 10 weeks). Also, the “Number of weeks in which the growth of microorganisms remained below the limiting values (yeasts <10^3-4 CFU/g)” value is given as 10 weeks in assay [3] and 10 weeks (of a maximum of 10 weeks) in assay [3] (listed as o-phenylphenol).
